Reference: patent US5314999A, “Derivatives of basic polyene macrolides and their preparation” (Laboratoires Mayoly-Spindler, priority 1989, dated 1994)
≈ marks a conversion by molar mass, not a printed value. Like-named read-outs stand apart in the source and are kept apart here.

Assays:
[1] = Solubility of the AmB derivatives; format: physicochemical; details: 5% glucose solution, ambient temperature, up to saturation; read-out: solubility (soluble up to a concentration of)
Protocol: C.2. Solubility of the AmB derivatives according to the present invention
AmB or the derivatives obtained are dissolved at ambient temperature in a 5% glucose solution up to saturation.

[2] = Toxicity on red corpuscles (lysis), mice; format: cell-based; details: mouse, red blood cells, 37° C., 1 hour 30, read-out: LD 50 (dose which leads to lysis in 50% of the erythrocytes)
Protocol: (§1) B.1: Study of the toxicity on red corpuscles
(§2) All the solutions of the AmB derivatives according to the invention were prepared immediately before use by diluting 4 mg of substance in 100 μl of 5% glucose solution, and then, after 15 minutes protected from light, 100 μl of sterile distilled water are added, and the mixture is made up to stock solutions of 4 mg/ml with a 5% glucose solution. For comparative study of the effects of AmB, 4 mg of FUNGIZONE are diluted with 1 ml of 5% glucose.
(§3) The cells are prepared by placing 1 ml of a peripheral blood sample into a tube together with Ficollhypaque to remove the lymphocytes, and then centrifuging the mixture at 2000 rpm for 20 minutes. The remaining red corpuscles are recovered, washed once with 0.9% NaCl and then twice with 150 Mm KCl, 0.5 Mm tris-HCl, pH 7.4.
(§4) A 1.25% suspension is then prepared with 150 mM KCl solution, 0.5 mM tris-HCl, pH 7.4, and 150 μl thereof are distributed in wells along with 50 μl of each of the dilutions of the derivatives, plus a control well (5% glucose solution).
(§5) The cells are then incubated at 37° C. in a steam cabinet for 1 hour 30.
(§6) To evaluate the cell lysis, haemoglobin is essayed by removing 100 μl of the supernatant in each well and diluting the sample with 1 ml of distilled water.
(§7) The haemoglobin concentration is calculated by measuring the optical density at 540 nm and taking into account the absorption of the derivatives of amphotericine B.
(§8) LD 50 is the dose which leads to lysis in 50% of the erythrocytes (a control of 100% lysis is obtained with distilled water, and reference lysis of 0% is obtained with the 5% glucose solution).

DAUDI (human lymphoma B) = assay: Toxicity on nucleated cells, DAUDI human lymphoma B; format: cell-based; details: 1 hour 30, trypan blue, 90 min, read-out: LD 50 (concentration leading to a mortality of 50%)
red corpuscles = assay: Toxicity on red corpuscles (lysis), human; format: cell-based; details: 37° C., 1 hour 30, 90 min, 90 min, read-out: LD 50 (dose which leads to lysis in 50% of the erythrocytes)
Protocol: as §1, §2, §3, §4, §5, §6, §7, §8

Aspergillus fumigatus = assay: Diffusion method in agar-agar medium (Sabouraud agar-agar); format: cell-based; details: Aspergillus fumigatus, Sabouraud agar-agar, disc diameter 1 cm, 0.1 ml; read-out: concentration giving a growth inhibition of 1 cm around a disc in solid medium
Protocol: (§9) A.2 : Study of the antibiotic efficiency of amphotericine B derivatives in agar-agar medium against Aspergillus
(§10) The antibiotic activity was tested by the diffusion method in agar-agar medium (Sabouraud agar-agar).
(§11) The efficiency of each molecule was determined by the size of the growth-inhibiting zone around a WHATMAN 3M paper disc impregnated with the antibiotic substance of a given concentration.
(§12) A suspension of Aspergillus spores in a broth was prepared, 0.2 ml of this suspension was used to inoculate at its surface an agar-agar medium which was solidified in such a manner that a homogeneous growth layer was obtained. After spreading, the WHATMAN 3M paper discs (diameter: 1 cm) were placed on the surface of the agar-agar, and then impregnated with 0.1 ml of the antibiotic substance at different concentrations.

Aspergillus flavus = assay: as above; format: cell-based; details: Sabouraud agar-agar, disc diameter 1 cm, 0.1 ml
Protocol: as §9, §10, §11, §12

Pytirosporum orbiculare = assay: Growth inhibition in liquid medium (Sabouraud broth); format: cell-based; details: Sabouraud broth, 28° C., 18 hours; read-out: IC 50 (growth-inhibiting concentration of 50%)
Protocol: (§13) A.1 : Study of the antibiotic efficiency of AmB derivatives in liquid medium against different yeasts
(§14) The antibiotic efficiency was tested by the growth inhibition method in liquid medium (Sabouraud broth) in the presence of different concentrations of the derivatives studied.
(§15) A yeast suspension was cultivated in a broth in such a manner that about 1×10^2 cell/ml were obtained.
(§16) The tubes containing the different concentrations of antifungal substance were inoculated with the same amount of yeast cells, and were then incubated at 28° C. for 18 hours with stirring. For each concentration of antifungal substance, two identical tubes were prepared.
(§17) The inhibition of fungal growth corresponding to the different concentrations was evaluated for each molecule by spectrophotometry at 620 nm and expressed in percent with respect to a reference solution without antifungal substance.

Candida albicans = assay: as above; format: cell-based; details: Candida albicans, 18 h, Sabouraud broth, 28° C., 18 hours; read-out: IC 50 (growth-inhibiting concentration of 50%)
Protocol: as §13, §14, §15, §16, §17

Saccharomyces cerevisiae = assay: as above; format: cell-based; details: Saccharomyces cerevisiae, 18 h, Sabouraud broth, 28° C., 18 hours; read-out: IC 50 (growth-inhibiting concentration of 50%)
Protocol: as §13, §14, §15, §16, §17

Cryptoccocus neoformans = assay: as above; format: cell-based; details: 18 h, Sabouraud broth, 28° C., 18 hours; read-out: IC 50 (growth-inhibiting concentration of 50%)
Protocol: as §13, §14, §15, §16, §17

Candida albicans B 2630 = assay: as above; format: cell-based; details: B2630, Sabouraud broth, 28° C., 18 hours, read-out: IC 50 (growth-inhibiting concentration of 50%)
Protocol: as §13, §14, §15, §16, §17

[3] = Toxicity on nucleated cells, mice B lymph gland cells; format: cell-based; details: mouse, 1 hour 30, trypan blue, read-out: LD 50 (concentration leading to a mortality of 50%)
Protocol: (§18) B.2: Study of the toxicity on nucleated cells
(§19) The solutions of the amphotericine B derivatives are prepared similarly to those mentioned in paragraph B.1.
(§20) The cells are prepared by placing 20 ml of blood diluted to 1/2 with 0.9% NaCl into a tube together with 10 ml of Ficoll-hypaque, and the mixture is centrifuged at 2000 rpm for 30 minutes. The cell nuclei are recovered and washed twice with PBS buffer containing 5% of foetal calf serum.
(§21) The cells are prepared by suspending 1.14×10^6 cells/ml in RPMI 1640 containing 2.5% of foetal calf serum and by filling each well with 150 μl. 50 μl of each dilution of the derivatives are added and also one control (5% glucose solution).
(§22) The cells are then incubated in a steam cabinet at a CO2 concentration of 5% for 1 hour 30 at 37° C. or at ambient temperature.
(§23) To evaluate the toxicity of the derivatives, a cell count in the presence of trypan blue is made, and the LD 50 (concentration of the derivative leading to a mortality of 50%) is calculated with respect to the control (5% glucose solution) for each concentration of each derivative.

PBL = assay: Toxicity on nucleated cells, human PBL; format: cell-based; details: 90 min
Protocol: as §18, §19, §20, §21, §22, §23

[4] = Toxicity on nucleated cells, mice T lymph gland cells; format: cell-based; details: mouse, 1 hour 30, trypan blue, read-out: LD 50 (concentration leading to a mortality of 50%)
Protocol: as §18, §19, §20, §21, §22, §23

[5] = Toxicity on nucleated cells, X 63 mice lymphoma B; format: cell-based; details: mouse, x 63 lymphoma cells, 1 hour 30, trypan blue, read-out: LD 50 (concentration leading to a mortality of 50%)
[6] = Toxicity on nucleated cells, human bone marrow; format: cell-based; details: 1 hour 30, trypan blue, read-out: LD 50 (concentration leading to a mortality of 50%)
Protocol: as §18, §19, §20, §21, §22, §23

[7] = Toxicity on nucleated cells, mice thymocytes; format: cell-based; details: mouse, thymocytes, 1 hour 30, trypan blue, read-out: LD 50 (concentration leading to a mortality of 50%)
[8] = Toxicity on nucleated cells, human thymocytes; format: cell-based; details: 1 hour 30, trypan blue, read-out: LD 50 (concentration leading to a mortality of 50%)
Protocol: as §18, §19, §20, §21, §22, §23

| Compound | solubility [1] | HC50 at 1.5 h [2] | CC50 (DAUDI (human lymphoma B)) | HC50 (red corpuscles) | IC (1 cm inhibition zone) (Aspergillus fumigatus) | concentration giving a growth inhibition of 1 cm around a disc in solid medium (Aspergillus flavus) | IC50 (Pytirosporum orbiculare) | IC50 (Candida albicans) | IC50 (Saccharomyces cerevisiae) | IC50 (Cryptoccocus neoformans) | IC50 (Candida albicans B 2630) | CC50 at 1.5 h [3] | CC50 (PBL; human PBL, 1 hour 30, trypan blue, read-out: LD 50 (concentration leading to a mortality of 50%)) | CC50 (PBL; human PBLs, AmB 12 derivative, comparison of different catalysts (Table 4), listed as Oxalic acid NMG salt, read-out: LD 50 (the source's name)) | CC50 at 1.5 h [4] | CC50 at 1.5 h [5] | CC50 at 1.5 h [6] | CC50 at 1.5 h [7] | CC50 at 1.5 h [8] |
| --- | --- | --- | --- | --- | --- | --- | --- | --- | --- | --- | --- | --- | --- | --- | --- | --- | --- | --- | --- |
| C[C@@H]1[C@H](O)[C@@H](C)/C=C/C=C/C=C/C=C/C=C/C=C/C=C/[C@H](O[C@@H]2O[C@H](C)[C@@H](O)[C@H](NCC(=O)[C@@H](O)[C@@H]3OC(c4ccccc4)OC[C@H]3O)[C@@H]2O)C[C@@H]2O[C@](O)(C[C@@H](O)C[C@@H](O)[C@H](O)CC[C@@H](O)C[C@@H](O)CC(=O)O[C@H]1C)C[C@H](O)[C@H]2C(=O)O (stereo partly drawn) [AmB 20, 1-deoxy-1-amino-4,6-O-benzylidene-D-fructosyl-AmB] | 40 mg/mL (≈ 34.1 mM) |  |  |  |  |  |  |  |  |  |  |  |  |  |  |  |  |  |  |
| C[C@@H]1[C@H](O)[C@@H](C)/C=C/C=C/C=C/C=C/C=C/C=C/C=C/[C@H](O[C@@H]2O[C@H](C)[C@@H](O)[C@H](NCC3(O)O[C@H](C(N)=O)[C@@H](O)[C@@H]3O)[C@@H]2O)C[C@@H]2O[C@](O)(C[C@@H](O)C[C@@H](O)[C@H](O)CC[C@@H](O)C[C@@H](O)CC(=O)O[C@H]1C)C[C@H](O)[C@H]2C(=O)O (stereo partly drawn) [AmB 12 F, 1-amino-1-deoxy-D-arabinoglucuronamidyl-AmB] |  | 20 µM | > 1000 µM | 100 µM | 80 µM | 3 × 10^-4 molarity | 0.096 µM | 0.09 µM | 1.1 µM | 0.065 µM | 0.24 µM | 10 µM | > 1000 µM | > 1000 µM | 10 µM | > 1000 µM | > 1000 µM | 4 µM | > 300 µM |
| C[C@@H]1[C@H](O)[C@@H](C)/C=C/C=C/C=C/C=C/C=C/C=C/C=C/[C@H](O[C@@H]2O[C@H](C)[C@@H](O)[C@H](NCC3(O)O[C@H](C(=O)O)[C@@H](O)[C@@H]3O)[C@@H]2O)C[C@@H]2O[C@](O)(C[C@@H](O)C[C@@H](O)[C@H](O)CC[C@@H](O)C[C@@H](O)CC(=O)O[C@H]1C)C[C@H](O)[C@H]2C(=O)O (stereo partly drawn) [AmB 17, 1-amino-1-deoxy-D-arabinoglucuronyl-AmB] | 20 mg/mL (≈ 18.2 mM) |  |  |  |  |  |  |  |  |  |  |  |  |  |  |  |  |  |  |
